In US20230002327A1, “SMALL-MOLECULE REGULATOR OF TLR8” (TSINGHUA UNIVERSITY, priority 2019, published 2023):

Columns and labels:
[1] = tested on: HEK-Blue hTLR8 cell line; test: Toxicity test of compounds (CCK-8 cell viability); type: cell-based, human; set-up: key to WST1 (normalized toxicity effect): viability relative to control well (background-subtracted OD), 1 = control; details: normalized cell viability, HEK-Blue cell lines
Procedure: In the 96-well plate used for the above-mentioned activity test of compounds (remaining 50 μL of culture medium containing cells), 5 μL of CellCountingKit-8 (CCK-8) Supermix was added to each well. Note that the introduction of air bubbles into the wells should be avoided since the air bubbles would interfere with the detection of OD value.
The culture plate was incubated in an incubator for 1 to 4 hours,
The edge of the 96-well plate could be tapped gently before reading the plate, and then the absorbance at 450 nm was measured by using the multi-mode plate reader.
Cell viability (%) was determined using the following formula: cell viability (%)=([Compound well ([…])−Background well (OD450)]/[Control well ([…])−Background well (OD450)])×100%. Among these, the background well was only added with the medium and CCK-8 reagent, the control well was only added with the medium, cells, R848 and CCK-8, and the compound wells were added with the medium, cells, R848, compounds in different concentrations, and CCK-8.

[2] = molecular target: T1, TLR8 (Homo sapiens, UniProt Q9NR97); test: Inhibition of R848-induced signaling in HEK-Blue hTLR8 cell line (Quanti-Blue); type: cell-based; details: HEK-Blue hTLR8 cell line; for Remaining R848-induced TLR8 signaling (normalized activity; ligand+DMSO = 1, untreated = 0): ligand+DMSO = 100% activity; for IC50: R848-induced signaling, value ± standard deviation, at least triplicate
T1 construct: host or cells: HEK-Blue hTLR8 (HEK293-derived SEAP reporter cells)
T1 sequence (Q9NR97 27-1041): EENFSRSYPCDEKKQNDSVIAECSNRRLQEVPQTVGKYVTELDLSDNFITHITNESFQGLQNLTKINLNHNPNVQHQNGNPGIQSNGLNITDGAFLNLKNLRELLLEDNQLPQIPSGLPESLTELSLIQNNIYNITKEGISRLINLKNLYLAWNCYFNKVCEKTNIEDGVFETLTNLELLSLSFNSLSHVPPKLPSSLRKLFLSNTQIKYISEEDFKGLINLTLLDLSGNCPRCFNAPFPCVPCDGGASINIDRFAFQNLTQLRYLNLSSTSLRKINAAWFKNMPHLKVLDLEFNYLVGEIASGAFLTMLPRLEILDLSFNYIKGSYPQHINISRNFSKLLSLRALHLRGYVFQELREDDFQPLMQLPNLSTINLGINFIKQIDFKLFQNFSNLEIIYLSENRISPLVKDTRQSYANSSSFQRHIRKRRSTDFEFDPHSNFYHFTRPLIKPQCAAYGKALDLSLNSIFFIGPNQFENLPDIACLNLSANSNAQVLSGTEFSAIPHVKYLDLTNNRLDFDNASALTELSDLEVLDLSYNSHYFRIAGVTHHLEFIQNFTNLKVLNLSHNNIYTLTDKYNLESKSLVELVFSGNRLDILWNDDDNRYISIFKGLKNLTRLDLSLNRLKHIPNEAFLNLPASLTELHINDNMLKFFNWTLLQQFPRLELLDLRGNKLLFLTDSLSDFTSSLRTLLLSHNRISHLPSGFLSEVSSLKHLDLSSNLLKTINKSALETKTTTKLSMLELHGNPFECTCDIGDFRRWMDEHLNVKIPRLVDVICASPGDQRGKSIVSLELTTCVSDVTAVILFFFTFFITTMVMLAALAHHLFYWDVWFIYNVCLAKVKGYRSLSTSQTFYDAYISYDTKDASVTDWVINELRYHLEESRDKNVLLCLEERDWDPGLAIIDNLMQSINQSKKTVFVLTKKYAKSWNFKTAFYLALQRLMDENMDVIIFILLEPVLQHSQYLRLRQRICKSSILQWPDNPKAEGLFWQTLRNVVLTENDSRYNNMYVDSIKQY
Procedure: (§1) HEK Blue hTLR8 cells or HEK Blue hTLR7 cells were cultured in DMEM medium supplemented with 10% fetal bovine serum, penicillin (100 U/mL) and streptomycin ([…]). Thereafter, cells were seeded in 96-well plate (45,000 cells per well), and were cultured for 24 hours in a humidified incubator (37° C., 5% CO2).
After 24 hours, the supernatant and suspending cells were aspirated and replaced with fresh serum-free DMEM.
(§2) After 24 hours, 50 μL of the medium was aspirated from each well and then added to a new 96-well plate, followed by the addition of 50 μL of Quanti-Blue in each well and the incubation at 37° C. in darkness. Changes in color would occur in the […] within 60 minutes, and the absorbance was measured at 620 nm by using the multi-mode plate reader Vrioskan Flash. Inhibition rate (%)=[R848 (OD620)−Compound (OD620)]/[R848 (OD620)−Control (OD620)]×100%. Among these, the control group was only added with the same amount of cells. Finally, the software Prism 6.0 was utilized to plot a graph and calculate IC50 values. Or, the activity of the cells treated with ligand and DMSO was defined as 100% activity, and the activity of the untreated cells was defined as 0% activity.

[3] = molecular target: T2, TLR7 (Homo sapiens, UniProt Q9NYK1); test: Inhibition of R848-induced signaling in HEK-Blue hTLR7 cell line (Quanti-Blue); type: cell-based
T2 construct: host or cells: HEK-Blue hTLR7 (HEK293-derived SEAP reporter cells)
T2 sequence (Q9NYK1 27-1049): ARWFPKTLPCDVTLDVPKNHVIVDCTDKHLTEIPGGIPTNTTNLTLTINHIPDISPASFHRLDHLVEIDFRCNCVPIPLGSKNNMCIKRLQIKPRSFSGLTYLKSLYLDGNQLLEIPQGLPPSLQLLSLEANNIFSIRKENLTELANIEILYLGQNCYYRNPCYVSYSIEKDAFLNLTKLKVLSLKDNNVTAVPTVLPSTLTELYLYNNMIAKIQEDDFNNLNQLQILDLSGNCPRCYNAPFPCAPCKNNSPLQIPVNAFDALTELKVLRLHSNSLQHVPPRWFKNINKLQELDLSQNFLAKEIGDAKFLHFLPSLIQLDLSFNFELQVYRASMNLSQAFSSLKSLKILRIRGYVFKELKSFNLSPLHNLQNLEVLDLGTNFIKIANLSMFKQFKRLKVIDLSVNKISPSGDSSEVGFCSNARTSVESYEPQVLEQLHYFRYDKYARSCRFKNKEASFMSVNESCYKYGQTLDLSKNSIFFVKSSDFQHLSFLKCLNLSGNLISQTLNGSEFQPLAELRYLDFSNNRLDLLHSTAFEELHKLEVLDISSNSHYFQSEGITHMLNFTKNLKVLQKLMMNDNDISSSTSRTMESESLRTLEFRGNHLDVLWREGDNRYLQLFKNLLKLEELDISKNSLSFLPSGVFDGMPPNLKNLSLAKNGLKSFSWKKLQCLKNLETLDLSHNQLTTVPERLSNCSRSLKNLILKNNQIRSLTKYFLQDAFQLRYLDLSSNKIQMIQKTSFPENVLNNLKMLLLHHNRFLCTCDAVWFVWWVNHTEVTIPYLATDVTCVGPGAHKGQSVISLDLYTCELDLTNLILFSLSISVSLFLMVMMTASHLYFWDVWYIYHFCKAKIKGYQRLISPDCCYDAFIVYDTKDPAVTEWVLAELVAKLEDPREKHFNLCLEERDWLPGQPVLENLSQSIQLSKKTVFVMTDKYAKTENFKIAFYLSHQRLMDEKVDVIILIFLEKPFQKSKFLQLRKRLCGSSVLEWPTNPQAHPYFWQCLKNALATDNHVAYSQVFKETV
Procedure: as §1
After 24 hours, the supernatant and suspending cells were aspirated and replaced with fresh serum-free DMEM. Cells were treated with 1 μg/mL of R848 (agonist of TLR7/8) or 5 μg/mL of ssRNA40/LyoVec or 5 μg/mL of ORN06/LyoVec (InvivoGen) and compounds with specified concentrations, and were placed in a humidified incubator (37° C., 5% CO2) for co-culture.
as §2

| Structure (SMILES) | Remaining R848-induced TLR8 signaling (normalized activity; ligand+DMSO = 1, untreated = 0) [2] | TLR7 (normalized inhibitory effect on R848-induced signaling) [3] | IC50 [2] | WST1 (normalized toxicity effect) [1] |
| --- | --- | --- | --- | --- |
| CCOCc1nc(C(=O)OC)c(-c2ccccc2)n1CC(C)(C)O [Compound 42, methyl 2-(ethoxymethyl)-1-(2-hydroxy-2-methylpropyl)-5-phenyl-1H-imidazole-4-carboxylate] | 0.9 ± 0.2 | 0.9 ± 0.2 |  | 0.9 ± 0.1 |
| CCOCc1ncc(-c2ccccc2)n1CC(C)(C)O [Compound 50, 1-[2-(ethoxymethyl)-5-phenyl-1H-imidazole-1-yl]-2-methylpropan-2-ol] | 1.1 ± 0.3 | 1.0 ± 0.1 |  | 0.9 ± 0.2 |
| CC(C)Cn1cnc(I)c1-c1ccccc1 [Compound 59, 4-iodo-1-(2-methylpropyl)-5-phenyl-1H-imidazole] | 0.2 ± 0.1 | 0.2 ± 0.1 |  |  |
| CCOCc1ncc(-c2ccccc2)n1CC(C)C [Compound 55, 2-(ethoxymethyl)-1-(2-methylpropyl)-5-phenyl-1H-imidazole] | 0.8 ± 0.1 | 0.6 ± 0.2 |  | 0.9 ± 0.3 |
| CCOCc1nc(C(C)(C)O)c(-c2ccccc2)n1CC(C)(C)O [Compound 47, 1-[2-(ethoxymethyl)-4-(2-hydroxypropan-2-yl)-5-phenyl-1H-imidazole-1-yl]-2-methylpropan-2-ol] | 0.9 ± 0.1 | 0.8 ± 0.0 |  |  |
| CSc1nnc(CCCO)n1-c1ccc(C(F)(F)F)cc1 [Compound 26, 3-(5-(methylthio)-4-(4-(trifluoromethyl)phenyl)-4H-1,2,4-triazole-3-yl)propan-1-ol] |  |  | 4840 ± 820 nM |  |
| CSc1nnc(CCCO)n1-c1ccc(Cl)c(Cl)c1 [Compound 19, 3-(4-(3,4-dichlorophenyl)-5-(methylthio)-4H-1,2,4-triazole-3-yl)propan-1-ol] |  |  | 190 ± 10 nM |  |

The next lines start with results.

| Remaining R848-induced TLR8 signaling (normalized activity; ligand+DMSO = 1, untreated = 0) [2] | TLR7 (normalized inhibitory effect on R848-induced signaling) [3] | IC50 [2] | Structure (SMILES) | WST1 (normalized toxicity effect) [1] |
| --- | --- | --- | --- | --- |
| 0.3 ± 0.2 | 0.8 ± 0.2 |  | CCOCc1nc(Br)c(-c2ccccc2)n1CC(C)(C)O [Compound 52, 1-[4-bromo-2-(ethoxymethyl)-5-phenyl-1H-imidazole-1-yl]-2-methylpropan-2-ol] | 1.1 ± 0.3 |
| 0.9 ± 0.1 | 0.9 ± 0.2 |  | CCOCc1nc(I)c(-c2ccc(C)cc2)n1CC(C)(C)O [Compound 64, 1-(2-(ethoxymethyl)-4-iodo-5-(p-tolyl)-1H-imidazole-1-yl)-2-methylpropan-2-ol] | 1.1 ± 0.1 |
| 0.9 ± 0.1 | 0.9 ± 0.2 |  | CCOCc1nc(I)c(-c2ccc3ccccc3c2)n1CC(C)(C)O [Compound 63, 1-(2-(ethoxymethyl)-4-iodo-5-(naphthalen-2-yl)-1H-imidazole-1-yl)-2-methylpropan-2-ol] | 1.0 ± 0.1 |
| 1.0 ± 0.2 | 0.8 ± 0.2 |  | CCOCc1nc(CF)c(-c2ccccc2)n1CC(C)(C)O [Compound 46, 1-[2-(ethoxymethyl)-4-(fluoromethyl)-5-phenyl-1H-imidazole-1-yl]-2-methylpropan-2-ol] | 0.9 ± 0.3 |
| 0.06 ± 0.1 | 0.9 ± 0.1 |  | CCOCc1nc(I)c(-c2cccc3ccccc23)n1CC(C)(C)O [Compound 62, 1-(2-(ethoxymethyl)-4-iodo-5-(naphthalen-1-yl)-1H-imidazole-1-yl)-2-methylpropan-2-ol] | 0.8 ± 0.1 |
| 0.9 ± 0.2 | 0.9 ± 0.2 |  | CCOCc1nc(C(=O)O)c(-c2ccccc2)n1CC(C)(C)O [Compound 54, 2-(ethoxymethyl)-1-(2-hydroxy-2-methylpropyl)-5-phenyl-1H-imidazole-4-carboxylic acid] | 1.1 ± 0.3 |
| 0.6 ± 0.0 | 0.8 ± 0.0 |  | CCOCc1nc(-c2ccccc2)c(-c2ccccc2)n1CC(C)(C)O [Compound 49, 1-[2-(ethoxymethyl)-4,5-diphenyl-1H-imidazole-1-yl]-2-methylpropan-2-ol] |  |
| 0.3 ± 0.1 | 1.0 ± 0.1 |  | CCOCc1nc(I)c(-c2ccc(-c3ccccc3)cc2)n1CC(C)(C)O [Compound 60, 1-(5-([1,1′-biphenyl]-4-yl)-2-(ethoxymethyl)-4-iodo-1H-imidazole-1-yl)-2-methylpropan-2-ol] | 0.6 ± 0.1 |
